Assay results taken from patent US10577373B2, “TYK2 inhibitors and uses thereof” (Nimbus Lakshmi, Inc., priority 2017, dated 2020).

tested on: IL-12 induced STAT4 phophorylation mediated by Tyk2/JAK2 (heterodimeric complex); assay: IL-12 Induced pSTAT4 in Human PBMC; assay type: cell-based; conditions: 1.7 ng/mL IL-12
From the text: The IL-12 Induced pSTAT4 assay evaluates the inhibition of IL-12 induced STAT4 phophorylation mediated by Tyk2/JAK2 (heterodimeric complex).

`CNc1cc(-c2cn([C@H]3CCCOC3)c3ncccc23)nc2c(C(=O)N[C@H]3CC[C@@H]3OC)cnn12` [I-1283] and `CNc1cc(-c2cn([C@@H]3CCN(CCF)C3)c3ncccc23)nc2c(C(=O)N[C@@H]3C[C@@H]3F)cnn12` [I-1366] cannot be ordered by IC50: < 0.1 µM for the first, < 0.1 µM for the second.

`CNc1cc(Nc2cccn([C@H]3CC[C@](C)(O)CC3)c2=O)nc2c(C(=O)N[C@H]3C[C@H]3F)cnn12` [I-372] and `CNc1cc(Nc2cccn([C@H]3CC[C@@](C)(O)CC3)c2=O)nc2c(C(=O)N[C@H]3C[C@H]3F)cnn12` [I-370] cannot be ordered by IC50: < 0.1 µM for the first, < 0.1 µM for the second.

`CNc1cc(Nc2cccn([C@H]3CCCN(CCF)C3)c2=O)nc2c(C(=O)N[C@@H]3C[C@@H]3F)cnn12` [I-900] and `CNc1cc(Nc2cccn([C@@H]3CC[C@@H]3O)c2=O)nc2c(C(=O)N[C@@H]3CC[C@H]3OC)cnn12` [I-1350] cannot be ordered by IC50: < 0.1 µM for the first, < 0.1 µM for the second.

Going from `CNc1cc(Nc2cccn([C@H]3CCCC[C@H]3OC)c2=O)nc2c(C(=O)N[C@H]3CC[C@@H]3OC)cnn12` [I-1377] to `CNc1cc(Nc2cccn(-c3ncccc3F)c2=O)nc2c(C(=O)O)cnn12` [I-893, 5-((3′-fluoro-2-oxo-2H-[1,2′-bipyridin]-3-yl)amino)-7-(methylamino) pyrazolo[1,5-a]pyrimidine-3-carboxylic acid], the IC50 rises from < 0.1 µM to > 1 µM.

tested on: GM-CSF induced STAT5 phosphorylation mediated by the JAK2/JAK2 homdimeric complex; assay: GM-CSF Induced pSTAT5 in Human PBMC; conditions: Homo sapiens, PBMC, 20 min, read-out: PBMC_GMCSF_pSTAT5 IC50, human PBMC; GM-CSF 5 ng/mL for 20 minutes; pSTAT5
From the text: Human PBMC are isolated from buffy coat and are stored frozen for assays as needed.

`CNc1cc(Nc2cccn3ccnc23)nc2c(C(=O)N[C@H]3CC[C@@H]3OC)cnn12` [I-1052] and `CNc1cc(Nc2cccn3cnnc23)nc2c(C(=O)N[C@H]3CC[C@@H]3OC)cnn12` [I-1102] cannot be ordered by IC50: > 50 µM for the first, > 2.5 µM for the second.

`CNc1cc(Nc2cccn([C@H]3CC[C@@H]3O)c2=O)nc2c(C(=O)N[C@H]3CC[C@@H]3OC)cnn12` [I-1094] and `CNc1cc(Nc2cccn([C@@H]3CC[C@H]3O)c2=O)nc2c(C(=O)N[C@H]3CC[C@@H]3OC)cnn12` [I-1093] cannot be ordered by IC50: > 50 µM for the first, > 50 µM for the second.

`CNc1cc(Nc2cc(Cl)cn(-c3cnn(C)c3F)c2=O)nc2c(C(=O)NC3CC3)cnn12` [I-955] and `CNc1cc(Nc2cccn(-c3cnn(C)c3F)c2=O)nc2c(C(=O)N[C@H]3CC[C@@H]3OC)cnn12` [I-1066] cannot be ordered by IC50: > 12.5 µM for the first, > 50 µM for the second.

`CNc1cc(Nc2cccc(N3CCCC3=O)n2)nc2c(C(=O)N[C@H]3CC[C@H]3O)cnn12` [I-969] and `CNc1cc(Nc2cccn(-c3ccccn3)c2=O)nc2c(C(=O)N[C@H]3CC[C@@H]3O)cnn12` [I-971] cannot be ordered by IC50: > 50 µM for the first, > 50 µM for the second.

`CNc1cc(Nc2cccn([C@H]3CCCC[C@H]3OC)c2=O)nc2c(C(=O)N[C@H]3CC[C@@H]3OC)cnn12` [I-1097] and `CNc1cc(Nc2cccn([C@H]3CCCC[C@H]3O)c2=O)nc2c(C(=O)N[C@@H]3CC[C@H]3OC)cnn12` [I-1057] cannot be ordered by IC50: > 50 µM for the first, > 50 µM for the second.

`CNc1cc(Nc2cccn([C@H]3CCC[C@H](OC)C3)c2=O)nc2c(C(=O)N[C@H]3CC[C@@H]3OC)cnn12` [I-1098] and `CNc1cc(Nc2cccn([C@@H]3CCC[C@@H](OC)C3)c2=O)nc2c(C(=O)N[C@H]3CC[C@@H]3OC)cnn12` [I-1099] cannot be ordered by IC50: > 50 µM for the first, > 50 µM for the second.

`CNc1cc(Nc2cccn([C@H]3CCCC[C@H]3O)c2=O)nc2c(C(=O)NC3CC3)cnn12` [I-878] and `CNc1cc(Nc2cccn([C@H]3CCC[C@H]3O)c2=O)nc2c(C(=O)NC3CC3)cnn12` [I-963] cannot be ordered by IC50: > 50 µM for the first, > 50 µM for the second.

`CNc1cc(-c2cn(C3CC3)c3ncccc23)nc2c(C(=O)N[C@H]3CC[C@@H]3OC)cnn12` (stereo in doubt) [I-1067, 5-(1-cyclopropyl-1H-pyrrolo[2,3-b]pyridin-3-yl)-N-(2-methoxycyclobutyl)-7-(methylamino)pyrazolo[1,5-a]pyrimidine-3-carboxamide] and `CNc1cc(-c2cn(C3CCOCC3)c3ncccc23)nc2c(C(=O)NC3CCC3O)cnn12` (centres unmarked) [I-1048, N-(2-hydroxycyclobutyl)-7-(methylamino)-5-(1-(tetrahydro-2H-pyran-4-yl)-1H-pyrrolo[2,3-b]pyridin-3-yl)pyrazolo[1,5-a]pyrimidine-3-carboxamide] cannot be ordered by IC50: > 12.5 µM for the first, > 2.5 µM for the second.

`CNc1cc(Nc2cccn([C@@H]3CC[C@H]3O)c2=O)nc2c(C(=O)N[C@@H]3C[C@@H]3F)cnn12` [I-999] and `CNc1cc(Nc2cccn([C@H]3CCC[C@H]3O)c2=O)nc2c(C(=O)N[C@@H]3C[C@@H]3F)cnn12` [I-965] cannot be ordered by IC50: > 50 µM for the first, > 50 µM for the second.

`CNc1cc(Nc2cccn([C@H]3CCC[C@H](OC)C3)c2=O)nc2c(C(=O)NCC3(CO)CC3)cnn12` [I-1010] and `CNc1cc(Nc2cccn([C@H]3CCC[C@H](OC)C3)c2=O)nc2c(C(=O)NCC(C)(C)CO)cnn12` [I-958] cannot be ordered by IC50: > 50 µM for the first, > 50 µM for the second.

`[2H]C([2H])([2H])Oc1ncccc1Nc1cc(NC)n2ncc(C(=O)NC3CC4(COC4)C3)c2n1` [I-417, 5-((2-(methoxy-d3)pyridin-3-yl)amino)-7-(methylamino)-N-(2-oxaspiro[3.3]heptan-6-yl)pyrazolo[1,5-a]pyrimidine-3-carboxamide] and `CNc1cc(Nc2cccc3ocnc23)nc2c(C(=O)NC3CCC3OC)cnn12` (centres unmarked) [I-1051, 5-(benzo[d]oxazol-4-ylamino)-N-(2-methoxycyclobutyl)-7-(methylamino) pyrazolo[1,5-a]pyrimidine-3-carboxamide] cannot be ordered by IC50: > 50 µM for the first, > 50 µM for the second.

`CNc1cc(Nc2cccn([C@H]3CCC[C@H](O)C3)c2=O)nc2c(C(=O)N[C@H]3CC[C@@H]3OC)cnn12` [I-1063] and `CNc1cc(Nc2cccn([C@H]3CCC[C@@H](OC)C3)c2=O)nc2c(C(=O)N[C@H]3CC[C@@H]3OC)cnn12` [I-996] cannot be ordered by IC50: > 50 µM for the first, > 50 µM for the second.

`CNc1cc(Nc2cccn(-c3cnco3)c2=O)nc2c(C(=O)N[C@H]3CC[C@H]3O)cnn12` [I-1017] and `CNc1cc(Nc2cccn(-c3ncc(C)s3)c2=O)nc2c(C(=O)N[C@@H]3CC[C@H]3O)cnn12` [I-1070] cannot be ordered by IC50: > 12.5 µM for the first, > 12.5 µM for the second.

`CNc1cc(-c2cn(C(C)C)c3ncc(F)cc23)nc2c(C(=O)N[C@H]3CC[C@H]3O)cnn12` [I-1013, 5-(5-fluoro-1-isopropyl-1-pyrrolo[2,3-b]pyridin-3-yl)-N-(2-hydroxycyclobutyl)-7-(methylamino)pyrazolo[1,5-a]pyrimidine-3-carboxamide] and `CNc1cc(-c2cn(C(C)C)c3ncc(F)cc23)nc2c(C(=O)N[C@H]3CC[C@@H]3OC)cnn12` [I-1053, 5-(5-fluoro-1-isopropyl-1H-pyrrolo[2,3-b]pyridin-3-yl)-N-((1S,2S)-2-methoxycyclobutyl)-7-(methylamino)pyrazolo[1,5-a]pyrimidine-3-carboxamide] cannot be ordered by IC50: > 12.5 µM for the first, > 12.5 µM for the second.

`CNc1cc(Nc2cccn([C@H]3CC[C@](C)(OC)CC3)c2=O)nc2c(C(=O)N[C@H]3CC[C@@H]3OC)cnn12` [I-1105] and `CNc1cc(Nc2cccn([C@H]3CCC[C@H]3O)c2=O)nc2c(C(=O)N[C@H]3CC[C@@H]3OC)cnn12` [I-1101] cannot be ordered by IC50: > 50 µM for the first, > 50 µM for the second.

`CNc1cc(Nc2cccn([C@@H]3CCC[C@@H](OC)C3)c2=O)nc2c(C(=O)NC3CC3)cnn12` [I-957] and `CNc1cc(Nc2cccn([C@H]3CCC[C@H](OC)C3)c2=O)nc2c(C(=O)NC3CC3)cnn12` [I-1025] cannot be ordered by IC50: > 50 µM for the first, > 50 µM for the second.

`CNc1cc(Nc2cccn([C@@H]3CCC[C@@H](O)C3)c2=O)nc2c(C(=O)N[C@@H]3C[C@@H]3F)cnn12` [I-1029] and `CNc1cc(Nc2cccn([C@H]3CCC[C@H](OC)C3)c2=O)nc2c(C(=O)N[C@@H]3C[C@@H]3F)cnn12` [I-1042] cannot be ordered by IC50: > 2.5 µM for the first, > 2.5 µM for the second.

`CNc1cc(Nc2cccn([C@@H]3CC[C@H]3OC)c2=O)nc2c(C(=O)N[C@@H]3C[C@@H]3F)cnn12` [I-1022] and `CNc1cc(Nc2cccn([C@H]3[C@@H]4COC[C@@H]43)c2=O)nc2c(C(=O)N[C@H]3CC[C@@H]3OC)cnn12` [I-1088] cannot be ordered by IC50: > 12.5 µM for the first, > 50 µM for the second.

`CNc1cc(Nc2cccn([C@H]3CCN(CCF)C3)c2=O)nc2c(C(=O)N[C@H]3CC[C@@H]3OC)cnn12` [I-1050, 5-((1-((S)-1-(2-fluoroethyl)pyrrolidin-3-yl)-2-oxo-1,2-dihydropyridin-3-yl)amino)-N-((1 S,2S)-2-methoxycyclobutyl)-7-(methylamino)pyrazolo[1,5-a]pyrimidine-3-carboxamide] and `CNc1cc(Nc2cccn([C@@H]3CCN(CCF)C3)c2=O)nc2c(C(=O)NC3CCC3OC)cnn12` (stereo partly drawn) [I-1096, 5-((1-((R)—1-(2-fluoroethyl)pyrrolidin-3-yl)-2-oxo-1,2-dihydropyridin-3-yl)amino)-N-(2-methoxycyclobutyl)-7-(methylamino)pyrazolo[1,5-a]pyrimidine-3-carboxamide] cannot be ordered by IC50: > 50 µM for the first, > 50 µM for the second.

`CNc1cc(Nc2cccn(-c3cccc(F)c3)c2=O)nc2c(C(=O)N[C@H]3CC[C@H]3O)cnn12` [I-1004] and `CNc1cc(Nc2cccn(-c3ccccc3F)c2=O)nc2c(C(=O)N[C@H]3CC[C@H]3O)cnn12` [I-1035] cannot be ordered by IC50: > 12.5 µM for the first, > 2.5 µM for the second.

`CNc1cc(Nc2cccn([C@H]3CCC[C@@H](OC)C3)c2=O)nc2c(C(=O)N[C@@H]3CC[C@H]3O)cnn12` [I-993] and `CNc1cc(Nc2cccn([C@@H]3CCCN(CCF)C3)c2=O)nc2c(C(=O)N[C@@H]3CC[C@H]3OC)cnn12` [I-1095] cannot be ordered by IC50: > 50 µM for the first, > 50 µM for the second.

`CNc1cc(Nc2cccn(-c3ccccc3F)c2=O)nc2c(C(=O)N[C@H]3CC[C@@H]3O)cnn12` [I-1038] and `CNc1cc(Nc2cccn([C@H]3CCCN(CCF)C3)c2=O)nc2c(C(=O)N[C@@H]3CC[C@H]3OC)cnn12` [I-1059] cannot be ordered by IC50: > 50 µM for the first, > 50 µM for the second.

same assay, conditions: read-out: PBMC_GMCSF_pSTAT5 IC50; human PBMC; GM-CSF 5 ng/mL for 20 minutes; pSTAT5

`CNc1cc(Nc2cccn([C@@H]3CCC[C@H](OC)C3)c2=O)nc2c(C(=O)N[C@@H]3CC[C@H]3OC)cnn12` [I-1082] and `CNc1cc(Nc2cccn([C@H]3CC[C@](C)(OC)CC3)c2=O)nc2c(C(=O)N[C@@H]3CC[C@H]3O)cnn12` [I-962] cannot be ordered by IC50: > 50 µM for the first, > 50 µM for the second.

`CNc1cc(Nc2cccn([C@H]3CC[C@](C)(OC)CC3)c2=O)nc2c(C(=O)N[C@@H]3CC[C@H]3O)cnn12` [I-1107] and `CNc1cc(Nc2cccn(-c3ncc(C)s3)c2=O)nc2c(C(=O)N[C@@H]3CC[C@@H]3O)cnn12` [I-1073] cannot be ordered by IC50: > 2.5 µM for the first, > 50 µM for the second.
